This is an account of results in patent US8691768B2, “Methods of determining delta opioid receptor subtypes” (The Regents of the University of California, priority 2008, dated 2014).

Counter-ions that a name gives are not always drawn. Like-named read-outs stand apart in the source and are kept apart here.

The test system of data set [1] is Lewis rats, ventral tegmental area (VTA). The data set is described as follows: Ethanol self-administration (two-bottle continuous access) after microinjection into the VTA. The class given is in vivo. The settings on record: 0.2 mM microinjected into VTA. As to the method: (§1) Male Lewis rats (Harlan Laboratories, Indianapolis, Ind.) weighing between 275-300 g were individually housed in a temperature controlled colony room (21° C.) maintained on a reversed light/dark cycle 12L:12D cycle (lights off at 10 A.M., lights on at 10 P.M.). All experiments were performed during the dark portion of the cycle. Food and water was provided ad libitum.
(§2) Ethanol was administered via a two-bottle continuous access, free-choice paradigm in which one bottle contained 10% ETOH (v/v) and the other bottle contained water. Sucrose was never added to the ethanol solution. The amount of ETOH and water consumed was measured at the same time daily (10 A.M.). […] Animals were weighed daily. Bottles were identical and their positions were counterbalanced and rotated daily. Change in drinking was calculated by subtracting the amount of drinking (mg/kg) on the day following treatment from the amount of drinking (mg/kg) on the day prior to treatment.
Animals were anesthetized and maintained on isoflurane (0.5 l/min) as needed for the duration of surgery. Animals were placed in a stereotaxic frame and were implanted with bilateral 26-gauge stainless steel chronic guide cannulas (Plastincs One, Roanoke, Va.) into the VTA (AP, −5.8; ML, ±0.5; DV, −7.0) based on the atlas of Paxinos and Watson (1997, The rat brain in sterotaxic coordinates, compact, Ed 3. San Diego: Academic). Cannulas were secured to the skull with dental cement. At the end of the surgical procedure, animals were treated with penicillin and topical antibiotics. A stainless steel dummy cannula (Plastics One) was inserted into each guide cannula and remained in place when the guide cannulas were not in use. Animals were allowed a 1 week recovery period before behavioral testing.
Each injection was made using a 1 μl syringe (Hamilton, Reno, Nev.) attached to 20 cm of PE 50 tubing connected to a 33-gauge injection cannula (Plastics One). Microinjections of 0.5 μl volumes were given at a rate of 0.5 μl/min using a syringe pump (kd Scientific, Hollister, Mass.) into each side of the VTA, except for bicuculline injections, where 0.25 μl was injected per side. Injection cannulas extended 2 mm beyond guide cannulas and were left in place for 1 min following microinjections to minimize the backflow of drug solution. In addition to drug microinjections, physiological saline microinjections were made in every rat to measure the effect of the injection manipulation alone on drinking Drug injections were randomized and counterbalanced. Change in drinking due to drug microinjections was calculated by comparing both the previous day's consumption (“baseline”) and to saline injection. At the conclusion of the experiment, animals were anesthetized with pentobarbital and perfused intracardially through the ascending aorta with 0.1 M phosphate buffered saline followed by 10% formalin. Brains were sectioned coronally at 50 μm, mounted and stained with cresyl violet. Only animals with confirmed injection sites within the VTA were included. No behavioral differences were observed between animals with anterior compared with posterior cannula placements.
For behavioral experiments, DPDPE (10mM; Sigma, St. Louis, Mo.), TIPP-ψ (5 μM; NIDA, Bethesda, Md.), Bicuculline (1 mM; Sigma), DAMGO (0.2 mM; Sigma), and CTOP (10 mM; Tocris, Ellisville, Mo.) were prepared in physiological saline for microinjection into the VTA. For electrophysiology, all drugs were applied by bath perfusion. Stock solutions were made and diluted in artificial CSF immediately before application. All chemicals were obtained from Sigma or Tocris except TIPP-ψ, which was acquired from NIDA.
Results are presented as mean±SEM where appropriate. For behavioral data, drinking was analyzed using 24 h time points. Raw drinking data were used for paired Student's t test comparisons probing drug effects on drinking compared with baseline or saline injections, a more conservative comparison than analyzing normalized data. […]

The subject of data set [2] is C57BL/6 mice. The data set is described as follows: Limited access 2-bottle choice drinking paradigm (water or 10% ethanol). The class given is in vivo. The settings on record: for ethanol consumption (drinking behavior): 5 mg/kg s.c. alone, 4 hour 2-bottle choice. How it is done:
Male C57BL/6 mice (20-23 g, Taconic) were individually housed in ventilated PLEXIGLAS® cages at ambient temperature (21° C.) in a room maintained on a reversed 12L:12D cycle (lights off at 10.00, lights on at 22.00). Food and water was provided ad libitum. The mice were given time to acclimatize to the individual housing conditions and reverse light cycle before the start of the experiments. Mice were weighed weekly. All procedures were pre-approved by the Gallo Center Institutional Animal Care and Use Committee and were in accordance with National Institutes of Health Guide for the Care and Use of Laboratory Animal.
From Monday through Friday, mice were presented with a 2-bottle choice (water or 10% ethanol) for a 4 hour period (11.00-15.00) while in the dark cycle. Outside the 2-bottle choice period, all mice had unlimited access to water. All fluids were presented in 100-ml graduated glass cylinders with stainless-steel drinking spouts inserted through two grommets in front of the cage. Bottles were weighed to the nearest decigram (0.1 g) at the start and end of the 2-bottle choice period. The positions of the tubes containing water and ethanol were reversed daily to limit the effects of positional preference. Mice (9 per group) were injected with drugs subcutaneously (s.c.) on Friday 30 minutes before the start of the 2-bottle choice period.
(§3) Ethanol and sucrose solutions were prepared in tap water using 95% (vol/vol) ethanol (Gold Shield Chemical Co., Hayward, Calif., USA). Naltriben mesylate (NTB), 7-benzylidenenaltrexone maleate (BNTX) were purchased from Tocris (MO, USA). TAN-67 dihydrobromide, naltrindole hydrochloride (NTI) and naltrexone hydrochloride (NTX) were from Sigma-Aldrich (MO, USA). All compounds were dissolved in saline, with the exception of BNTX and NTB, which were dissolved in 5% DMSO. All drugs were made up immediately prior to injection and were administered s.c. at a volume of 10 ml/kg.
Baseline values were determined by taking the average of the consumption over the three days prior to injection. Statistical analysis was performed using Prism software (GraphPad, San Diego, Calif.). Significance was determined by means of one-way ANOVA or two-way ANOVA (repeated measures). A post-hoc Newman-Keuls (one-way ANOVA) or Bonferroni (two-way ANOVA) test was used when a significant overall effect was found (p<0.05). (*, p<0.05; **, p<0.01; ***, p<0.001).

For data set [3] the following is noted: numerous animal studies; cited from earlier work.
For data set [4] the following is noted: clinical studies; cited from earlier work.
Data set [5] in a line: Rewarding effect of TAN-67 (Example 4, method not given). The class given is in vivo. The settings on record: therapeutically effective dose.
The test system of data set [6] is C57BL/6 mice. The data set is described as follows: Locomotor activity assay. Type of data set: in vivo. Particulars: assayed 30 minutes after injection for 4 hours. How it is done:
To determine the effect of DOP-R subtype-selective drugs on mouse locomotion, the following locomotor activity assay was performed. On the testing day, mice (n=8) were habituated to the locomotor boxes for 30 minutes prior to the behavioral assay. Mice were injected s.c. with vehicle (saline or 5% DMSO), 25 mg/kg TAN-67 or 6 mg/kg NTB and placed back in the locomotor boxes. Locomotor activity was assayed 30 minutes after injection for 4 hours using Accuscan Digipro activity monitors (Accuscan, Columbus, Ohio). All mice were tested during their light phase between the hours of 9.00 and 14.00. Mice were placed into custom-made acrylic boxes that were 21×21 cm and 28 cm tall. One acrylic box was used per single Accuscan monitor (Accuscan). Activity monitors were themselves housed inside sound-attenuating chambers (Med-Associates, St Albans, Vt.) equipped with lights and fans, both of which were turned on during the testing session. To eliminate variability due to handling and novelty, on the two days before the testing day, mice were habituated to the locomotor boxes for 30 minutes injected with saline and placed in the locomotor box for an additional 30 minutes.

For data set [7], the system named is C57BL/6 mice. The data set is described as follows: Sucrose intake (natural reward). The settings on record: mouse, in vivo. How it is done: as §3
Data set [8] concerns chronically drinking rats. The data set is described as follows: Drinking of chronically drinking rats after systemic administration. The class given is in vivo. As to the method:
as §1, §2

The subject of data set [9] is GABAA IPSCs in VTA neurons. Nature of the data set: Slice electrophysiology, whole-cell patch-clamp of GABAA IPSCs in VTA neurons. The settings on record: animals treated with 5 mg/kg morphine IP twice daily for 7 days. The class given is cell-based, Lewis rats. Background: In patch-clamp work, channel activity is measured electrically.
The next data set relates to DOR. Nature of the data set: Immunocytochemistry of DOR expression in VTA tissue. Type of data set: in vivo, Lewis rats. Particulars: chronic treatment, once daily 0.5 mg/kg for 20 days.
Data set [10] has as its target delta opioid receptor (DOP-R) (rat) (UniProt P33533). Nature of the data set: cell-based or functional assay.

Chain of delta opioid receptor (DOP-R) (rat) (P33533 whole entry, stated change not applied): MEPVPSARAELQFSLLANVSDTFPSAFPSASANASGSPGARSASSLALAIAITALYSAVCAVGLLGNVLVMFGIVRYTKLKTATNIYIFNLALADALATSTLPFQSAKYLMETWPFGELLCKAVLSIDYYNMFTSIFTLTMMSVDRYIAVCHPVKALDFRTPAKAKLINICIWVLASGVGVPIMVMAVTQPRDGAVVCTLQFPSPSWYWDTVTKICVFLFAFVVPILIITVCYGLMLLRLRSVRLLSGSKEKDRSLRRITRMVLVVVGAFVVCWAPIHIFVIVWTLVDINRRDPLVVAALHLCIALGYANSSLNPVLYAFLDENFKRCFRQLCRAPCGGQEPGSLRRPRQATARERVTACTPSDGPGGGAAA
Experimental for DOR: Materials and Methods: Male Lewis rats (250-300 g) were housed as in Example 8. In the first part of the experiment, rats received once daily injections of 0.5 mg/kg morphine for 20 days, after which they were sacrificed and the VTA tissue was examined for DOR expression. Standard immunocytochemical methods were used with a DOR-targeted antibody (SC9111) purchased from Santa Cruz Biotechnology, Inc. For electrophysiology experiments, rats received twice daily injections, 10 hours apart, of 5 mg/kg morphine IP for 7 days.

In the case of `C[C@@H](NC(=O)[C@@H](N)Cc1ccc(O)cc1)C(=O)NCC(=O)N(C)[C@@H](Cc1ccccc1)C(=O)NCCO` [DAMGO], in data set [1], the “drinking (EtOH)” value was “did not affect drinking”.
As for `Oc1ccc2c3c1O[C@H]1c4[nH]c5ccccc5c4C[C@@]4(O)[C@@H](C2)N(CC2CC2)CC[C@]314` [NTI, naltrindole hydrochloride], in the data set with C57BL/6 mice [2] (10 or 15 mg/kg s.c.), the ethanol consumption entry is “did not alter” and the ethanol preference result is reported as “did not alter”.
In the case of `O=C1CC[C@@]2(O)[C@H]3Cc4ccc(O)c5c4[C@@]2(CCN3CC2CC2)[C@H]1O5` [NTX, naltrexone hydrochloride], the ethanol consumption result was “decrease in ethanol consumption” in the data set on C57BL/6 mice [2] (1.5 mg/kg s.c., 30 min before 4 hour 2-bottle choice); “decrease ethanol consumption” in data set [3]; “decrease ethanol consumption” in data set [4]. Besides, the “ethanol consumption (drinking behavior)” value in the data set with C57BL/6 mice [2] is recorded as “only moderate effects”.
For the compound `CN1CCC2(c3cccc(O)c3)Cc3nc4ccccc4cc3CC2C1` (stereo not drawn) [TAN-67, 2-methyl-4 alpha alpha-(3-hydroxyphenyl)-1,2,3,4,4a,5,12,12 alpha alpha-octahydro-quinolino[2,3,3,-g]isoquinoline], the ethanol consumption entry with C57BL/6 mice [2] (12.5 mg/kg s.c. alone) was “no effect”. Also, in the data set on C57BL/6 mice [2] (dose dependence, s.c.), the ethanol consumption result is reported as “dose-dependent decrease” and the ethanol preference result is “dose-dependent decrease”. In addition, the rewarding by itself entry in data set [5] is recorded as “not rewarding”. For the same compound, in the data set with C57BL/6 mice [6] (25 mg/kg s.c.), the “locomotor activity compared to vehicle treated animals” value is on record as “did not show any significant difference”. For the same compound, the sucrose intake entry in the data set with C57BL/6 mice [7] was “neither TAN-67 [F(1,16)=0.057, p=0.81] nor NTB [F(1,16)=0.62, p=0.44]had an affect”.
For the compound `COC(=O)/C=C/C(=O)N[C@@H]1CC[C@@]2(O)[C@H]3Cc4ccc(O)c5c4[C@@]2(CCN3CC2CC2)[C@H]1O5` [beta-FNA, β-funaltrexamine], the drinking result in data set [8] is “decrease their drinking”.
As for `CN1CC[C@]23c4c5ccc(O)c4O[C@H]2[C@@H](O)C=C[C@H]3[C@H]1C5` [morphine], the “electrically evoked GABA release on activating DOR1” value in data set [9] was “inhibits electrically evoked GABA release”. Besides, the “DOR expression in the VTA” value in the data set on DOR was “increases”.
“(2-D-penicillamine, 5-D-penicillamine)-enkephalin (DPDPE) (peptide)”: the saturating dose for inhibition of evoked IPSCs (dose-response in the presence of 1 µM CTAP) in data set [10] worked out at 1 µM.
Consider Naltriben mesylate [NTB], for which, in the data set with C57BL/6 mice [2], the “ethanol consumption (drinking behavior)” value is “no effect”. Moreover, in the data set on C57BL/6 mice [2] (dose dependence, s.c.), the ethanol consumption entry is on record as “dose dependently decreased” and the ethanol preference result is recorded as “dose dependently decreased”. Further, the “locomotor activity compared to vehicle treated animals” value in the data set on C57BL/6 mice [6] (6 mg/kg s.c.) was “did not show any significant difference”. Further, the sucrose intake entry in the data set with C57BL/6 mice [7] was “neither TAN-67 [F(1,16)=0.057, p=0.81] nor NTB [F(1,16)=0.62, p=0.44]had an affect”.
In [10], TIPP-ψ (peptide) yielded an evoked IPSC amplitude, decrease from baseline, antagonist alone (n=3) of 6.8%; a spontaneous IPSC amplitude, decrease, antagonist alone (n=2) of 2.6%; a spontaneous IPSC frequency, decrease, antagonist alone (n=2) of 8.6%.
